Data from patent US20260364184A1, “COMPOUND BASED ON OXOISOINDOLINYL-SUBSTITUTED TETRAHYDROPYRIMIDINE-DIONE AND USE THEREOF” (GLUETACS THERAPEUTICS (SHANGHAI) CO., LTD., priority 2023, published 2026).

Key:
Assay type in all cases: cell-based
[1] = tested on: Human Multiple myeloma cell line (MM.1S); assay: Inhibition of MM.1S cell proliferation (CellTiter luminescent viability); settings: Table IA1, IRAK4 inhibitor-based, 96 hours, read-out: Inhibitory activity (IC50, nM) on tumor cell proliferation, MM.1S
Summary of the method: (§1)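 IC50 is fitted from luminescent viability (CellTiter-Meiluncell) curves. Nine-point, 5-fold dilution series (top stock 2000 μM) are added at 0.5 μL per 100 μL medium to cells plated the day before, with growth at 37 °C and 5% CO2.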

[2] = molecular target: T1, IRAK4 (Homo sapiens, UniProt Q9NWZ3); assay: Western blot degradation of IRAK4; settings: hPBMC Cell; 24 hours
T1 construct: expression of target proteins in cells; endogenous in cells
T1 sequence (Q9NWZ3 1-460): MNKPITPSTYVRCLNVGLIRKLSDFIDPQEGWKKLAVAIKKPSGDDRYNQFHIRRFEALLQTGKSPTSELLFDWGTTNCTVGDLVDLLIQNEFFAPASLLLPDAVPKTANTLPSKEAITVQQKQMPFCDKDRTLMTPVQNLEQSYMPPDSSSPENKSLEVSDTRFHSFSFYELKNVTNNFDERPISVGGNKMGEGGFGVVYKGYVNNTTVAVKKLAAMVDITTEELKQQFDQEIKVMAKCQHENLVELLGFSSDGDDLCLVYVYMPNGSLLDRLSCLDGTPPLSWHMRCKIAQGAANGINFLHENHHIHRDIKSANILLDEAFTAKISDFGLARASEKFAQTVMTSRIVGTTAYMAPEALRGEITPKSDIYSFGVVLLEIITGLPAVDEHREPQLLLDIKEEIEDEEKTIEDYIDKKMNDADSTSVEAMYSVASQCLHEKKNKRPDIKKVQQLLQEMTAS
Summary of the method: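 Compound-treated cells harvested; lysates denatured 5 min at 95 °C, run on SDS-PAGE, blotted to NC membrane, blocked 1 h RT, probed with antibodies. Densitometry vs DMSO → DC50; target normalised to internal control → % remaining, degradation = 1 − remaining.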

[3] = tested on: Human myeloid monocytic leukemia cell line (MV-4-11); assay: Inhibition of MV-4-11 cell proliferation (CellTiter luminescent viability); settings: Homo sapiens, MV4-11, Table IA3, IRAK4 inhibitor-based, 96 hours; for inhibition at 0.01 µM: MV-4-11, 10 nM, read-out: Inhibition Rate at 10 nM (%); for inhibition at 0.5 µM: MV-4-11, 500 nM, read-out: Inhibition Rate at 500 nM (%)
Summary of the method: as §1

Row | IC50 [1] [nM] | Degradation of substrate protein IRAK4 (substrate protein remaining %) [2] | SMILES | inhibition at 0.01 µM [3] [%] | inhibition at 0.5 µM [3] [%]
1 | 500 to 1000 | A (0%≤substrate protein remaining %≤80%) | O=C1CCN(N2C(=O)c3ccc(N4CCC(CN5CCC(n6cc(NC(=O)c7coc(-c8ccnc(NCC9CC9)c8)n7)c(C(F)F)n6)CC5)CC4)cc3C2=O)C(=O)N1 [GT-04953, 2-(2-((cyclopropylmethyl)amino)pyridin-4-yl)-N-(3-(difluoromethyl)-1-(1-((1-(2-(2,4-dioxotetrahydropyrimidin-1(2H)-yl)-1,3-dioxoisoindolin-5-yl)piperidin-4-yl)methyl)piperidin-4-yl)-1H-pyrazol-4-yl) oxazole-4-carboxamide] |  | 
2 |  | A (0%≤substrate protein remaining %≤80%) | O=C1CCN(N2C(=O)c3cccc(N4CCC(CN5CCN(c6ccc7c(c6)nc(NC(=O)c6cccc(C(F)(F)F)c6)n7[C@H]6CC[C@@H](CO)CC6)CC5)CC4)c3C2=O)C(=O)N1 [GT-05325, N-(5-(4-((1-(2-(2,4-dioxotetrahydropyrimidin-1(2H)-yl)-1,3-dioxoisoindolin-4-yl)piperidin-4-yl)methyl)piperazin-1-yl)-1-((1s,4s)-4-(hydroxymethyl)cyclohexyl)-1H-benzo[d]imidazol-2-yl)-3-(trifluoromethyl)benzamide] | -15 to -10 | 60 to 80
3 |  | A (0%≤substrate protein remaining %≤80%) | COc1cc2nn([C@H]3CC[C@H](CN4CCN(C5CCN(c6ccc7c(c6)C(=O)N(N6CCC(=O)NC6=O)C7=O)CC5)CC4)CC3)cc2cc1NC(=O)c1cccc(C(F)(F)F)c1 [GT-08671, N-(2-((1r,4r)-4-((4-(1-(2-(2,4-dioxotetrahydropyrimidin-1(2H)-yl)-1,3-dioxoisoindolin-5-yl)piperidin-4-yl)piperazin-1-yl)methyl)cyclohexyl)-6-methoxy-2H-indazol-5-yl)-3-(trifluoromethyl)benzamide] |  | 
4 |  | A (0%≤substrate protein remaining %≤80%) | COc1cc2nn([C@H]3CC[C@H](CN4CC5CCC4CN5c4ccc5c(c4)C(=O)N(N4CCC(=O)NC4=O)C5=O)CC3)cc2cc1NC(=O)c1cccc(C(F)(F)F)c1 (stereo partly shown) [GT-08673, N-(2-((1r,4r)-4-((5-(2-(2,4-dioxotetrahydropyrimidin-1(2H)-yl)-1,3-dioxoisoindolin-5-yl)-2,5-diazabicyclo[2.2.2]octan-2-yl)methyl)cyclohexyl)-6-methoxy-2H-indazol-5-yl)-3-(trifluoromethyl)benzamide] |  | 

More lines, now with the values behind:

Row | SMILES | IC50 [1] [nM] | Degradation of substrate protein IRAK4 (substrate protein remaining %) [2] | inhibition at 0.01 µM [3] [%] | inhibition at 0.5 µM [3] [%]
5 | O=C1CCN(N2C(=O)c3ccc(N4C[C@H]5C[C@@H]4CN5C[C@H]4CC[C@H](n5cc(NC(=O)c6cnn7ccc(N8C[C@H]9C[C@@H]8CO9)nc67)c(C(F)F)n5)CC4)cc3C2=O)C(=O)N1 [GT-05238, 5-((1R,4R)-2-oxa-5-azabicyclo[2.2.1]heptan-5-yl)-N-(3-(difluoromethyl)-1-((1R,4R)-4-(((1R,4R)-5-(2-(2,4-dioxotetrahydropyrimidin-1(2H)-yl)-1,3-dioxoisoindolin-5-yl)-2,5-diazabicyclo[2.2.1]heptan-2-yl)methyl)cyclohexyl)-1H-pyrazol-4-yl)pyrazolo[1,5-a]pyrimidine-3-carboxamide] |  | A (0%≤substrate protein remaining %≤80%) | 20 to 36 | 60 to 80
6 | COc1cc2nn(C3CCN(CC4CCN(c5cccc6c5C(=O)N(N5CCC(=O)NC5=O)C6=O)CC4)CC3)cc2cc1NC(=O)c1cccc(C(F)(F)F)n1 [GT-05817, N-(2-(1-((1-(2-(2,4-dioxotetrahydropyrimidin-1(2H)-yl)-1,3-dioxoisoindolin-4-yl)piperidin-4-yl)methyl)piperidin-4-yl)-6-methoxy-2H-indazol-5-yl)-6-(trifluoromethyl) picolinamide] |  | A (0%≤substrate protein remaining %≤80%) | -5 to 0 | 50 to 60
7 | COc1cc2nn([C@H]3CC[C@H](CN4C5CC4CN(c4ccc6c(c4)C(=O)N(N4CCC(=O)NC4=O)C6=O)C5)CC3)cc2cc1NC(=O)c1cccc(C(F)(F)F)c1 [GT-08666, N-(2-((1r,4r)-4-((3-(2-(2,4-dioxotetrahydropyrimidin-1(2H)-yl)-1,3-dioxoisoindolin-5-yl)-3,6-diazabicyclo[3.1.1]heptan-6-yl)methyl)cyclohexyl)-6-methoxy-2H-indazol-5-yl)-3-(trifluoromethyl)benzamide] |  | A (0%≤substrate protein remaining %≤80%) |  | 
8 | COc1cc2nn([C@H]3CC[C@H](CN4CCN(c5cc(F)c6c(c5)C(=O)N(N5CCC(=O)NC5=O)C6=O)CC4)CC3)cc2cc1NC(=O)c1cccc(C(F)(F)F)c1 [GT-08670, N-(2-((1r,4r)-4-((4-(2-(2,4-dioxotetrahydropyrimidin-1(2H)-yl)-7-fluoro-1,3-dioxoisoindolin-5-yl)piperazin-1-yl)methyl)cyclohexyl)-6-methoxy-2H-indazol-5-yl)-3-(trifluoromethyl)benzamide] |  | A (0%≤substrate protein remaining %≤80%) |  | 
9 | COc1cc2nn([C@H]3CC[C@H](CN4CCN(C5CCN(c6ccc7c(c6)C(=O)N(N6CCC(=O)NC6=O)C7=O)CC5(F)F)CC4)CC3)cc2cc1NC(=O)c1cccc(C(F)(F)F)c1 (stereo partly shown) [GT-08672, N-(2-((1r,4r)-4-((4-(1-(2-(2,4-dioxotetrahydropyrimidin-1(2H)-yl)-1,3-dioxoisoindolin-5-yl)-3,3-difluoropiperidin-4-yl)piperazin-1-yl)methyl)cyclohexyl)-6-methoxy-2H-indazol-5-yl)-3-(trifluoromethyl)benzamide] |  | A (0%≤substrate protein remaining %≤80%) |  | 
